Test system: Plasmodium berghei
Assay: Luciferase/luciferin-expressing antifolate-resistant parasites were used to infect a culture of HepG2 cells that were pre-incubated with compounds. Infected hepatocytes emit light due to the luciferase reaction. Assay results are presented as the percent inhibition of light emission compared to control. […]
Type: functional
Conditions: sporozoite; for IC90: read-out: LUCIFERASE INFECTION ASSAY - IC90
[1] = read-out: LUCIFERASE INFECTION ASSAY - IC50

`CCOC(=O)Nc1nc2ccc(C(F)(F)F)cc2[nH]1` showed an IC50 (HEPG2TOX_HILL_SLOPE 0.892, HEPG2TOX_R_SQUARED 0.914, PBLUC_HILL_SLOPE 2.52, PBLUC_R_SQUARED 0.681, read-out: LUCIFERASE INFECTION ASSAY - IC50) of 0.459 µM and an IC90 of 1.1 µM.

`O=C(NC1CCCC1)c1ccc(-c2cn3c(-c4ccc(C(=O)NC5CC5)cc4)cnc3cn2)cc1` gave an IC50 (PBLUC_HILL_SLOPE 2.95, PBLUC_R_SQUARED 0.52, read-out: LUCIFERASE INFECTION ASSAY - IC50) of 4.87 µM and an IC90 of over 7.09 µM.

`CCn1c(SCC(=O)Nc2cc(Cl)ccc2O)nnc1-c1ccncc1` showed an IC50 [1] of over 8.46 µM and an IC90 of over 8.46 µM.

Compound `COc1ccc(-n2nc(C)c3c(O)c4c(nc32)CCCC4)cc1` has an IC50 (HEPG2TOX_HILL_SLOPE 2.37, HEPG2TOX_R_SQUARED 0.552, read-out: LUCIFERASE INFECTION ASSAY - IC50) of over 10.7 µM and an IC90 of over 10.7 µM.

`Cc1cc(C)cc(NC(=O)C(NNC(=O)CC23CC4CC(CC(C4)C2)C3)c2ccccc2)c1` (centres undefined) gave an IC50 [1] of over 10 µM and an IC90 of over 10 µM.

With `N#Cc1ccc(Nc2nc(C(F)(F)F)nc3ccccc23)cc1` the IC50 (HEPG2TOX_HILL_SLOPE 12.3, HEPG2TOX_R_SQUARED 0.755, PBLUC_HILL_SLOPE 4.38, PBLUC_R_SQUARED 0.727, read-out: LUCIFERASE INFECTION ASSAY - IC50) was 3.08 µM and the IC90 was 5.09 µM.

For `CN(C)CCN1CCN(c2cccc(-c3ccc(-c4ccccc4)cc3)n2)CC1`, the IC50 [1] was 5.35 µM and the IC90 was over 8.54 µM.

`CCOc1ccccc1NC(=O)c1cc(CC(C)C)oc1C` gave an IC50 [1] of over 10.9 µM and an IC90 of over 10.9 µM.

With `COc1ccc(Cn2c(C)nc3c(cnn3-c3ccc(Cl)cc3)c2=O)cc1` the IC50 (HEPG2TOX_HILL_SLOPE 7.21, HEPG2TOX_R_SQUARED 0.304, PBLUC_HILL_SLOPE 6.35, PBLUC_R_SQUARED 0.427, read-out: LUCIFERASE INFECTION ASSAY - IC50) was 7.48 µM and the IC90 was over 8.67 µM.

For `O=C(Nc1ccc(-c2nc3ccccc3[nH]2)cc1)c1ccc(NC(=O)C2CC2)s1`, the IC50 (HEPG2TOX_HILL_SLOPE 1.89, HEPG2TOX_R_SQUARED 0.991, PBLUC_HILL_SLOPE 4.29, PBLUC_R_SQUARED 0.909, read-out: LUCIFERASE INFECTION ASSAY - IC50) was 0.404 µM and the IC90 was 0.674 µM.

With `CN(C)Cc1ccccc1CNC(=O)Nc1ccc(Cl)c(Cl)c1` the IC50 (PBLUC_HILL_SLOPE 1.7, PBLUC_R_SQUARED 0.0619, read-out: LUCIFERASE INFECTION ASSAY - IC50) was 0.986 µM and the IC90 was over 2 µM.

`CC(=O)c1c(C)[nH]c(-c2csc(-c3ccc(C)cc3C)n2)c1C` gave an IC50 (PBLUC_HILL_SLOPE 2.12, PBLUC_R_SQUARED 0.351, read-out: LUCIFERASE INFECTION ASSAY - IC50) of 2.12 µM and an IC90 of 5.96 µM.

With `OC(c1ccccc1)c1cccs1` (centres undefined) the IC50 [1] was over 17.3 µM and the IC90 was over 17.3 µM.

For `CC(=O)Nc1cccc(-c2cc(NC=O)c3ncc(-c4ccc(C(C)=O)cc4)n3c2)c1`, the IC50 (HEPG2TOX_HILL_SLOPE 0.38, HEPG2TOX_R_SQUARED 0.804, PBLUC_HILL_SLOPE 0.536, PBLUC_R_SQUARED 0.0495, read-out: LUCIFERASE INFECTION ASSAY - IC50) was over 8 µM and the IC90 was over 8 µM.

`COc1ccc(C2CC(C)=NN2c2nc(-c3ccc(F)cc3)cs2)cc1OC` (centres undefined) showed an IC50 (PBLUC_HILL_SLOPE 2.46, PBLUC_R_SQUARED 0.655, read-out: LUCIFERASE INFECTION ASSAY - IC50) of 4.62 µM and an IC90 of over 8.3 µM.

Compound `COc1cccc(NCC2(c3ccnc(-c4ccccc4Cl)c3)CC2)c1` has an IC50 [1] of over 10 µM and an IC90 of over 10 µM.

`CN(C)CCCOc1ccc(-c2cn3c(-c4ccc5ncccc5c4)cnc3cn2)cn1` was tested, and the IC50 (HEPG2TOX_HILL_SLOPE 9.84, HEPG2TOX_R_SQUARED 0.59, PBLUC_HILL_SLOPE 45.1, PBLUC_R_SQUARED 0.189, read-out: LUCIFERASE INFECTION ASSAY - IC50) was 7 µM and the IC90 was 7.35 µM.

In the case of `CCOC(=O)c1sc(SC)c2c1CCc1conc1-2`, the IC50 [1] is reported as over 11.2 µM and the IC90 is reported as over 11.2 µM.

`O=C(Cc1cccc2ccccc12)NCC(=O)Nc1nc(-c2ccccc2)cs1` was tested, and the IC50 [1] was over 10 µM and the IC90 was over 10 µM.

In the case of `Cc1ccc(NC(=O)Nc2ccc3nc(Cc4ccccc4)nn3c2)cc1`, the IC50 (HEPG2TOX_HILL_SLOPE 3.07, HEPG2TOX_R_SQUARED 0.95, PBLUC_HILL_SLOPE 55.2, PBLUC_R_SQUARED 0.375, read-out: LUCIFERASE INFECTION ASSAY - IC50) is reported as 2.02 µM and the IC90 is reported as 2.11 µM.

In the case of `N#Cc1ccc(-c2cnc3cnc(-c4cccs4)cn23)cc1`, the IC50 (PBLUC_HILL_SLOPE 3.09, PBLUC_R_SQUARED 0.489, read-out: LUCIFERASE INFECTION ASSAY - IC50) is reported as 4.51 µM and the IC90 is reported as 9.18 µM.

Compound `O=C(NC1CCCCC1)N1CCc2nc(NCc3cccc(Oc4ccccc4)c3)ncc2C1` has an IC50 (HEPG2TOX_HILL_SLOPE 12.4, HEPG2TOX_R_SQUARED 0.711, PBLUC_HILL_SLOPE 13.6, PBLUC_R_SQUARED 0.535, read-out: LUCIFERASE INFECTION ASSAY - IC50) of 6.74 µM and an IC90 of over 7.21 µM.

Compound `OCCNc1ncnc2c1c(-c1ccccc1)cn2-c1ccc(Cl)cc1` has an IC50 (FFLUC_HILL_SLOPE 35.7, FFLUC_R_SQUARED 0.282, read-out: LUCIFERASE INFECTION ASSAY - IC50) of over 10 µM and an IC90 of over 10 µM.

In the case of `CCn1nnnc1Sc1nc(C)nc2sc3c(c12)CCC3`, the IC50 (HEPG2TOX_HILL_SLOPE 68.5, HEPG2TOX_R_SQUARED 0.626, PBLUC_HILL_SLOPE 11, PBLUC_R_SQUARED 0.226, read-out: LUCIFERASE INFECTION ASSAY - IC50) is reported as 3.05 µM and the IC90 is reported as 3.73 µM.

With `O=S(=O)(Nc1cc(-c2ccc(Cl)cc2)nn1-c1ccc(I)cc1)c1cccc(F)c1` the IC50 (HEPG2TOX_HILL_SLOPE 3.73, HEPG2TOX_R_SQUARED 0.889, PBLUC_HILL_SLOPE 8.27, PBLUC_R_SQUARED 0.455, read-out: LUCIFERASE INFECTION ASSAY - IC50) was 2.17 µM and the IC90 was 2.83 µM.

`Cc1ccc(CN2CCC3(CC2)C(=O)N(C(C)C)C(=O)N3CCc2ccccc2)o1` was tested, and the IC50 (HEPG2TOX_HILL_SLOPE 8.85, HEPG2TOX_R_SQUARED 0.516, read-out: LUCIFERASE INFECTION ASSAY - IC50) was over 8.06 µM and the IC90 was over 8.06 µM.

`CC1Cc2nc(N)nc(N)c2CC1C` (centres undefined) showed an IC50 [1] of over 17.2 µM and an IC90 of over 17.2 µM.

In the case of `O=C1OCCC1Sc1nc(-c2ccccc2)c(-c2ccccc2)o1` (centres undefined), the IC50 (PBLUC_HILL_SLOPE 0.774, PBLUC_R_SQUARED 0.522, read-out: LUCIFERASE INFECTION ASSAY - IC50) is reported as 4.13 µM and the IC90 is reported as over 9.78 µM.

With `CC1=CC(=O)N(c2ccc(F)c(Cl)c2)C1=O` the IC50 (HEPG2TOX_HILL_SLOPE 6.55, HEPG2TOX_R_SQUARED 0.196, PBLUC_HILL_SLOPE 2.8, PBLUC_R_SQUARED 0.561, read-out: LUCIFERASE INFECTION ASSAY - IC50) was 8.94 µM and the IC90 was over 13.8 µM.

`Cc1cc(=O)n2ncnc2n1CC(O)COc1ccc(Oc2ccccc2)cc1` (centres undefined) gave an IC50 (HEPG2TOX_HILL_SLOPE 1.76, HEPG2TOX_R_SQUARED 0.892, PBLUC_HILL_SLOPE 2.97, PBLUC_R_SQUARED 0.356, read-out: LUCIFERASE INFECTION ASSAY - IC50) of 3.91 µM and an IC90 of 8.2 µM.

`N#Cc1ccsc1NC(=O)COc1ccc([N+](=O)[O-])cc1Cl` gave an IC50 (FFLUC_HILL_SLOPE 45.5, FFLUC_R_SQUARED 0.53, PBLUC_HILL_SLOPE 0.51, PBLUC_R_SQUARED 0.745, read-out: LUCIFERASE INFECTION ASSAY - IC50) of 0.444 µM and an IC90 of over 10 µM.

For `O=[N+]([O-])c1ccc(SCCO)c2nonc12`, the IC50 (HEPG2TOX_HILL_SLOPE 4.76, HEPG2TOX_R_SQUARED 0.8, PBLUC_HILL_SLOPE 15.1, PBLUC_R_SQUARED 0.318, read-out: LUCIFERASE INFECTION ASSAY - IC50) was 11 µM and the IC90 was 12.8 µM.

Compound `COc1ccc(-c2nc(NC(=O)CCc3ccc4c(c3)OCO4)sc2C)cc1` has an IC50 (PBLUC_HILL_SLOPE 15.2, PBLUC_R_SQUARED 0.468, read-out: LUCIFERASE INFECTION ASSAY - IC50) of 8.95 µM and an IC90 of over 10 µM.

In the case of `O=C1C=CC(=O)N1c1ccc2c(c1)OCCO2`, the IC50 [1] is reported as over 14.3 µM and the IC90 is reported as over 14.3 µM.

`Clc1ccc(OCc2cccnc2)c(CN2CCN(c3ncccn3)CC2)c1` was tested, and the IC50 [1] was over 10 µM and the IC90 was over 10 µM.

`Cc1cccc(COc2cccc(C(=O)N3CCC(C(=O)NCc4ccccc4)CC3)c2)c1` showed an IC50 (HEPG2TOX_HILL_SLOPE 5.74, HEPG2TOX_R_SQUARED 0.455, read-out: LUCIFERASE INFECTION ASSAY - IC50) of over 10 µM and an IC90 of over 10 µM.

Compound `CC(=O)Nc1ccc(NC(=O)/C(C#N)=C/c2c(Cl)cccc2Cl)cc1` has an IC50 (PBLUC_HILL_SLOPE 14.2, PBLUC_R_SQUARED 0.281, read-out: LUCIFERASE INFECTION ASSAY - IC50) of 9.36 µM and an IC90 of over 10 µM.

For `Cn1c(-c2ccccc2)c(C(=O)CSc2nnc(-c3cccs3)[nH]2)c2ccccc21`, the IC50 (HEPG2TOX_HILL_SLOPE 1.76, HEPG2TOX_R_SQUARED 0.96, PBLUC_HILL_SLOPE 1.67, PBLUC_R_SQUARED 0.727, read-out: LUCIFERASE INFECTION ASSAY - IC50) was 2.1 µM and the IC90 was 7.84 µM.

Compound `CCn1ncc2c(C(=O)Nc3ccc(-c4cn5ccsc5n4)cc3)cc(-c3cccs3)nc21` has an IC50 (PBLUC_HILL_SLOPE 2.78, PBLUC_R_SQUARED 0.317, read-out: LUCIFERASE INFECTION ASSAY - IC50) of 7.98 µM and an IC90 of over 10 µM.

Compound `C[C@@H](C(=O)NNC(=O)c1cccc(S(=O)(=O)N2CCOCC2)c1)N1C(=O)C2CC=CCC2C1=O` (some centres undefined) has an IC50 [1] of over 10 µM and an IC90 of over 10 µM.

With `Cc1ccc(N2C(=O)C=CC2=O)c(C)c1` the IC50 (HEPG2TOX_HILL_SLOPE 8.83, HEPG2TOX_R_SQUARED 0.656, PBLUC_HILL_SLOPE 7.12, PBLUC_R_SQUARED 0.655, read-out: LUCIFERASE INFECTION ASSAY - IC50) was 5.02 µM and the IC90 was 6.84 µM.

For `CN(C)S(=O)(=O)c1ccc(Cn2cc(C(=O)NCc3cccc(C(F)(F)F)c3)sc2=O)cc1`, the IC50 (PBLUC_HILL_SLOPE 16, PBLUC_R_SQUARED 0.195, read-out: LUCIFERASE INFECTION ASSAY - IC50) was 6.47 µM and the IC90 was over 6.61 µM.

Source: ChEMBL document CHEMBL4483862, “Open-source discovery of chemical leads for next-generation chemoprotective antimalarials” (2018)
